US20240382506A1, “Means and Methods to Regulate Gut Dysbiosis” (VIB VZW, priority 2021, published 2024)

Experiments:
[1] = test system: Salmonella; experiment: Salmonella growth in CT26 cell supernatants; format: cell-based, Salmonella enterica serovar Typhimurium
Description: (§1) All mammalian cells were cultured at 5×10^5 cells per ml. Cells were washed with 1× PBS before induction of cell death in the indicated medium. Jurkat cells were cultured in suspension at 5×10^5 cells/ml. After induction of cell death, supernatant was collected and spun at 330 rcf for 5 minutes to remove cellular debris. Unless stated otherwise, the resulting supernatant was filtered using a 0.2 μm syringe filter and either used immediately or frozen at −20° C. for later use. Cells were stained with Annexin V (AV) conjugated to APC or Pac Blue and either Sytox blue, Yoyo-1, or 7AAD (DNA binding dyes) for 15 minutes at room temperature in Annexin V binding buffer (BD). Flow cytometry was performed using the Attune NxT (Invitrogen), the FACS Calibur (BD), the LSR Fortessa (BD), or the LSRII (BD). Data were analyzed using FlowJo v.10 software. All independent experiment values shown are the average values of technical duplicates. ‘% Annexin V^+’ cells include Annexin V^+DNA dye^− and Annexin V^+DNA dye^+ cell populations.
FADD-dependent apoptosis: CT26:FADD clones were incubated with 1 μg/ml doxycycline for 16 hours to induce expression of the construct. Doxycycline was washed away before addition of 10 nM B/B Homodimerizer for 5 hours to induce death. For Caspase inhibition studies, cells were incubated with 30 μM QVD for 1 hour prior to B/B administration and QVD was maintained in the media. […]
OD600 measurements: 4 ml of supernatant or media controls were inoculated with 1-2×10^7 CFU/ml of the indicated bacterial species. Cultures were grown at 37° C. with 200 rpm agitation (aerobic) and bacterial growth was quantified by OD600 measurements using the Ultrospec 10 (VWR) at the indicated time points. […]
(§2) CFU/ml values: 500 μl of supernatant or media controls were inoculated with 1×10^3 CFU of the indicated strain. Cultures were grown at 37° C. with 200 rpm agitation (aerobic) and growth was assessed at the indicated time by serially diluting with 1× PBS and plating onto LB agar (in vitro supernatants) or MacConkey agar (ex vivo primary colonocyte supernatants) to obtain CFU/ml values.

[2] = target: membrane pannexin-1 channels (Homo sapiens, UniProt Q96RD7); conditions: described in literature; cited from earlier work
Sequence of membrane pannexin-1 channels (Q96RD7 whole entry): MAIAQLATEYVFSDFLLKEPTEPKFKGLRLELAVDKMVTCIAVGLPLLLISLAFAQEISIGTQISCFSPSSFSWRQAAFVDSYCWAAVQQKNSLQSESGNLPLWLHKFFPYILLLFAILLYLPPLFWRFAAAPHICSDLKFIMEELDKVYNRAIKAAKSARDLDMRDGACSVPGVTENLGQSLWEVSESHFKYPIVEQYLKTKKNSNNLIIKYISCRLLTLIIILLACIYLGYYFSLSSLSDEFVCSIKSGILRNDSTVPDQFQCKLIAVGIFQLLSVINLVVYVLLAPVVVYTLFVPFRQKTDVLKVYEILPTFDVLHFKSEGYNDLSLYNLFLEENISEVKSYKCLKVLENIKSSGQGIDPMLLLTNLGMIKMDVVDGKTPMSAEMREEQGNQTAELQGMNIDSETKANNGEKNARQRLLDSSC

[3] = test system: Salmonella; format: cell-based, Salmonella enterica serovar Typhimurium
Description: Full length colons (from cecum to rectum) were excised from the indicated genotype of mice and cut open longitudinally to flay the colon open. Opened colons were vortexed 2-3 times in sterile 1× PBS to remove fecal content. Colons were then cut horizontally into 5-7 mm long pieces and incubated in DMEM +10% FBS and an antibiotic cocktail containing Ampicillin (100 μg/ml), Chloramphenicol (20 μg/ml), Kanamycin (50 μg/ml), and Streptomycin (100 μg/ml) for 2 hours at 37° C. with 5% CO2. Colonic pieces were then washed 3 times in sterile 1× PBS to remove any traces of the antibiotic cocktail. Individual colonic pieces were then incubated in 1.5 ml Eppendorf tubes containing 500 μl of DMEM+10% FBS+/−2 μM Stauro for 8 hours or +/−20 μg/ml Doxorubicin for 6 hours. For caspase inhibition, 30 μM QVD was added to the 2-hour antibiotic treatment step and was maintained throughout death induction. After death induction, colonic explants were spun at max speed for 5 minutes using a tabletop centrifuge and supernatant was collected. Unfiltered supernatant was used immediately or frozen −20° C. for subsequent use. […] All subsequent experiments (cell death, bacterial growth) utilized explants extracted from a minimum of 3 mice.
as §2

[4] = test system: CT26:FADD cells; experiment: CT26:FADD cell death (flow cytometry); format: cell-based, murine
Description: as §1
FADD-dependent apoptosis: CT26:FADD clones were incubated with 1 μg/ml doxycycline for 16 hours to induce expression of the construct. Doxycycline was washed away before addition of 10 nM B/B Homodimerizer for 5 hours to induce death. […]

[5] = test system: C57BL/6 colonic explants; experiment: Caspase-3 activation in colonic explants (colorimetric assay); format: cell-based, mouse; conditions: 20 μg/ml Doxo, 6 hours ex vivo
Description: Full length colons (from cecum to rectum) were excised from the indicated genotype of mice and cut open longitudinally to flay the colon open. Opened colons were vortexed 2-3 times in sterile 1× PBS to remove fecal content. Colons were then cut horizontally into 5-7 mm long pieces and incubated in DMEM +10% FBS and an antibiotic cocktail containing Ampicillin (100 μg/ml), Chloramphenicol (20 μg/ml), Kanamycin (50 μg/ml), and Streptomycin (100 μg/ml) for 2 hours at 37° C. with 5% CO2. Colonic pieces were then washed 3 times in sterile 1× PBS to remove any traces of the antibiotic cocktail. Individual colonic pieces were then incubated in 1.5 ml Eppendorf tubes containing 500 μl of DMEM+10% FBS+/−2 μM Stauro for 8 hours or +/−20 μg/ml Doxorubicin for 6 hours. For caspase inhibition, 30 μM QVD was added to the 2-hour antibiotic treatment step and was maintained throughout death induction. […]
Caspase-3 activation: Following removal of the supernatant, explant pieces were assessed for caspase-3 activity via the Caspase-3 Colorimetric Activity Assay Kit, DEVD (Sigma) according to the manufacturer's instructions. Colorimetric values were obtained at 405 nm using the iMark™ microplate reader (BioRad) and arbitrary units were calculated from a standard curve using the provided pNA standard.

[6] = test system: endogenous Enterobacteriaceae; experiment: Endogenous Enterobacteriaceae burden in uninfected doxorubicin-treated mice; format: in vivo; conditions: uninfected C57BL/6 mice, 2 days post-treatment
Description: (§3) Doxorubicin treatment. Doxorubicin was given as a single intraperitoneal (ip) injection at 15 mg/kg of mouse body weight while vehicle control (water) was given at similar volumes (approximately 300 μl volumes of water or 1 mg/ml Doxorubicin solution). The next day, mice were infected with 1×10^9 CFU of Salmonella (either single strain of competitive infections, as described above) or 1×10^9 CFU of E. coli. Tissues were harvested at day 1 post-infection and weight loss, total Salmonella burden, and competitive indices were calculated as above. Total Enterobacteriaceae burden, including E. coli, was assessed by plating tissue lysates on MacConkey agar without antibiotics. Uninfected controls were given 1× PBS via oral gavage instead of bacteria, and Endogenous Enterobacteriaceae burden was assessed by plating tissue lysates on MacConkey agar without antibiotics.

[7] = test system: Enterobacteriaceae; experiment: Bacterial growth in media with or without Doxo; format: cell-based, Salmonella and E. coli (strain HS); conditions: 9 hours aerobic growth in media with or without Doxo
Description: as §2

[8] = test system: Salmonella; experiment: Salmonella infection after doxorubicin treatment in mice; format: in vivo, Salmonella enterica serovar Typhimurium; conditions: day 1 post-infection
Description: Salmonella-induced colitis. Littermate, sex, and age-matched mice were infected using the Salmonella model of colitis^34. Specific pathogen free (SPF) mice were given a single dose of 20 mg streptomycin via oral gavage (100 μl of 200 mg/ml streptomycin dissolved in water) one day prior to infection. Mice were infected with 1×10^7 CFU per mouse resuspended in 1× PBS via oral gavage. For competitive infections, polar deletions containing the chromosomally inserted kanamycin resistance gene were used^56. Mice were infected with 1×10^7 CFU per strain per mouse, for a 2×10^7 CFU per mouse total inoculum in 100 μl. […] The input ratio of each strain was calculated by plating the infective dose on agar plates containing streptomycin (total inoculum) and agar plates containing streptomycin plus kanamycin (mutant strain). WT Salmonella was thus calculated as (total inoculum)−(mutant inoculum) and input ratio was calculated as (WT Salmonella)/(mutant Salmonella inoculum) with a desired input equal to 1. Mouse body weight was measured daily and ‘% body weight’ was calculated as (daily weight)/(day 0 starting weight). […] CFU per gram of tissue were calculated by plating serial dilutions of tissue homogenates on MacConkey agar containing streptomycin and MacConkey agar containing streptomycin and kanamycin. […]

[9] = Doxorubicin-induced gastrointestinal toxicity in mice; format: in vivo
Description: as §3

[10] = test system: E. coli; experiment: E. coli infection after doxorubicin treatment in mice; format: in vivo; conditions: C57BL/6 mice; data not shown
Description: as §3

[11] = test system: CT26 cells; experiment: Pyruvate concentration in CT26 supernatants; format: cell-based, murine; conditions: CT26 cells triggered with staurosporine
Description: Shikonin: CT26 cells were pretreated with 5 μM Shikonin (or DMSO vehicle control) for 1 hour. Cells were then washed once with PBS before replacing with fresh media containing the indicated trigger of cell death +/−5 μM Shikonin.
Metabolite detection: Pyruvate, formate, or fructose 1,6-bisphosphate concentrations were determined using the appropriate detection kit per the manufacturer's instructions. For these experiments, mammalian cells were cultured in DMEM without phenol red supplemented with 10% FBS.

[12] = test system: Salmonella; experiment: Salmonella gene expression (qPCR) in mammalian cell supernatants; format: cell-based, Salmonella enterica serovar Typhimurium; conditions: apoptotic supernatants from CT26 and HCT116 cells
Description: For all gene expression studies, bacterial cultures were grown to mid logarithmic growth phase (OD600=0.4−0.6), spun down at max speed, and then resuspended in TRIzol™ reagent (ThermoFisher) for immediate extraction or frozen at −80° C. Bacterial RNA was extracted and DNA removed as described using the RiboPure RNA Purification Kit (Thermo Fisher). For RNAseq experiments, ribosomal RNA was removed using Ribo-zero kits (Illumina). For all RNAseq data, sample groups were analyzed in quadruplicates and reads were mapped to the Salmonella Typhimurium SL1344 reference genome (ASM21085v2, EnsEMBL 39).
qPCR: cDNA synthesis was performed using the SensiFast cDNA synthesis kit (GC Biotech). qPCR primers were designed using NCBI Primer Blast. The ΔΔCT values for each independent biological replicate were calculated twice, first using the Salmonella housekeeping gene gmk^55 and then the housekeeping gene strB^56 and the two ΔΔCT values were averaged. Relative fold expression was calculated such that the average of the indicated controls was equal to 1. The endogenous controls for HS E. coli samples were gmk and rpoA^57. All independent experiment values shown are the average values of technical duplicates.

[13] = single ip 15 mg/kg, followed by oral infection
[14] = uninfected mice, 2 days post-treatment

## C=CCc1cccc(/C=N/NC(=O)CN2CCN(Cc3ccccc3)CC2)c1O [Pac-1]
[1]; 50 μM Pac-1 24 hours, OD600
  bacterial growth in supernatants from treated CT26 cells: enhanced bacterial growth

## CCCN(CCC)S(=O)(=O)c1ccc(C(=O)O)cc1 [Probenecid]
[2]
  membrane pannexin-1 channel inhibition: membrane pannexin-1 channel inhibitor

## CC(C)[C@H](NC(=O)c1ccc2ccccc2n1)C(=O)N[C@@H](CC(=O)O)C(=O)COc1c(F)cccc1F [QVD]
[3]; colonic explants treated with QVD and Stauro together, 30 μM QVD
  Salmonella growth in dying colonocyte supernatant with caspase inhibition: restricted Salmonella growth to live supernatant control levels
[1]; CT26:FADD cells treated with QVD, 8 hours aerobic growth
  Salmonella growth in CT26:FADD supernatants with caspase inhibition: reduced Salmonella growth back to media and live cell supernatant controls
[4]; 30 μM QVD, 5 hours post-death induction with B/B dimerizer
  cell death: reduced cell death
[4]; QVD, data not shown
  apoptotic caspase activation: reduced

## C[C@H](Cn1cnc2c(N)ncnc21)OCP(=O)(O)O [Tenofovir]
[2]
  membrane pannexin-1 channel inhibition: inhibit membrane pannexin-1 channels

## N[C@@H]1[C@H]2CN(c3nc4c(cc3F)c(=O)c(C(=O)O)cn4-c3ccc(F)cc3F)C[C@@H]12 [Trovafloxacin]
[2]
  membrane pannexin-1 channel inhibition: membrane pannexin-1 channel inhibitor

## COc1cccc2c1C(=O)c1c(O)c3c(c(O)c1C2=O)C[C@@](O)(C(=O)CO)C[C@@H]3O[C@H]1C[C@H](N)[C@H](O)[C@H](C)O1 [doxorubicin]
[5]
  caspase-3 activation: induced caspase-3 activation
[6]
  endogenous Enterobacteriaceae CFU: potent expansion of the endogenous Enterobacteriaceae
[7]
  direct action on bacterial growth (CFU): direct antimicrobial action
[3]; 20 μg/ml Doxo ex vivo, 9 hours aerobic growth
  Salmonella outgrowth in supernatants of treated colonic explants: directly enhanced Salmonella outgrowth
[8]; C57BL/6 mice
  bacterial burden following infection with Salmonella: staggering increases in bacterial burden
[8]; control mice after doxorubicin treatment
  WT Salmonella compared to ΔpflB mutant (competitive index): significantly enriched
[9]; [13]
  cecal weight: significant reduction in cecal weight
  colon length: shortening of the colon
[9]; [14]
  caspase-3 activation in the ilea: caspase-3 activation in the ilea
  damage to ceca and colons: sufficient to induce damage to the ceca and colons
[10]
  bacterial burden following infection with E. coli: staggering increases in bacterial burden

## CC(=O)S[C@@H]1CC2=CC(=O)CC[C@]2(C)[C@H]2CC[C@@]3(C)[C@@H](CC[C@@]34CCC(=O)O4)[C@H]12 [spironolactone, Spironolactone]
[2]
  membrane pannexin-1 channel inhibition: membrane pannexin-I channel inhibitor

## CN[C@@H]1C[C@H]2O[C@@](C)([C@@H]1OC)n1c3ccccc3c3c4c(c5c6ccccc6n2c5c31)C(=O)NC4 [staurosporine, Staurosporine]
[11]
  pyruvate released compared to live cell supernatants or fresh media controls: significantly higher levels of pyruvate
[3]; C57BL/6 colonic explants, 2 μM Stauro 8 hours ex vivo, CFU after 9 hours aerobic growth
  Salmonella growth in apoptotic supernatants compared to live (vehicle-treated) colonocyte supernatants: ~10 fold
[1]; 1 μM staurosporine 24 hours, 9 hours aerobic growth
  Salmonella growth in supernatants of apoptotic CT26 cells compared to control treatments: strongly induced Salmonella growth
[12]
  Salmonella cadB expression: significantly increased the expression
  Salmonella pflB expression: significantly increased the expression
